Literature values in article PMC9159073 (Journal of medicinal chemistry, 2022).
Read-outs that look alike come from different tables or passages of the source.

Legend:
SARS-CoV-2 [1] = details: for Antiviral effect in combination with hydroxychloroquine: combined with hydroxychloroquine; for Antiviral activity in combination with remdesivir: combined with remdesivir
SARS-CoV-2 PL^pro [2] = details: increase in FluoZin-3 fluorescence
SARS-CoV-2 PL^pro [3] = details: for IC50: read-out: Enzymatic inhibition IC50; for Inhibition of SARS-CoV-2 PLpro: IC50 not quantified
SARS-CoV-2 PL^pro [4] = test system: SARS-CoV-2 PL^pro
SARS-CoV-2 PL^pro [5] = test system: SARS-CoV-2 PL^pro; remark: listed apart in the source
SARS-CoV-2 PL^pro [6] = details: read-out: IC50, mass spectrometry assay; nsp 2/3 substrate
SARS-CoV-2 PL^pro [7] = test system: SARS-CoV-2 PL^pro; remark: listed apart in the source
SARS-CoV-2 [8] = test system: SARS-CoV-2
SARS-CoV-2 PL^pro [9] = details: read-out: IC50, deISGylating activity of PLpro; ISG15-Rh substrate
SARS-CoV-2 [10] = details: read-out: Antiviral EC50; A549-hACE2 cells, virus yield reduction assay
SARS-CoV-2 [11] = details: read-out: Antiviral EC50
SARS-CoV-2 PL^pro [12] = details: read-out: KD (SPR)
[13] = test system: host DUBs and DUB-like proteases; details: 10 DUBs or DUB-like proteases
SARS-CoV-2 M^pro = details: read-out: M^pro IC50; no reducing agent in the Mpro assay
SARS-CoV-2 PL^pro [14] = details: read-out: IC50 (FP assay)
[15] = read-out: IC50, deubiquitinating activity of PLpro
[16] = FRET assay, hit validation study
[17] = read-out: Antiviral EC50 (qRTPCR), Vero E6 cells, qRT-PCR assay
[18] = SARS-CoV-2 infected Vero E6 cells

Compound: CCN(CC)C(=S)SSC(=S)N(CC)CC [Disulfiram (67), disulfiram]
- Inhibition of nsp13 ATPase activity (SARS-CoV-2 nsp13): inhibit
- Inhibition of nsp14 exoribonuclease activity (SARS-CoV-2 nsp14): inhibit
- Antiviral effect in combination with hydroxychloroquine (SARS-CoV-2 [1]): synergistic antiviral effect
- Antiviral activity in combination with remdesivir (SARS-CoV-2 [1]): synergistic
- Zinc ejection from PLpro (SARS-CoV-2 PL^pro [2]): eject zinc

Compound: O=C1c2c(O)cccc2[C@@H]([C@@H]2O[C@H](CO)[C@@H](O)[C@H](O)[C@H]2O)c2cc(CO)cc(O)c21 [aloin B (43), aloin B]
- IC50 (SARS-CoV-2 PL^pro [3]): 16.1 µM
- IC50 (SARS-CoV-2 PL^pro [4]; [15]): 17.5 µM

Compound: C[C@@H](NC(=O)c1ccccc1CCC(=O)NNC(=O)/C(C#N)=C/C1CC1)c1cccc2ccccc12 [Compound 51]
- IC50 (SARS-CoV-2 PL^pro [3]; covalent inhibitors): > 200 µM

Compound: Ac-hTyr-Dap-Gly-Gly-VME [VIR251 (45)]
- Inhibition of SARS-CoV PLpro (SARS-CoV PL^pro): dose-dependent inhibition
- Inhibition of SARS-CoV-2 PLpro (SARS-CoV-2 PL^pro [3]): dose-dependent inhibition

Compound: Ac-Abu(Bth)-Dap-Gly-Gly-VME [VIR250 (44)]
- Inhibition of SARS-CoV PLpro (SARS-CoV PL^pro): dose-dependent inhibition
- Inhibition of SARS-CoV-2 PLpro (SARS-CoV-2 PL^pro [3]): dose-dependent inhibition

Compound: COCC[n+]1c2c(n(Cc3cnccn3)c1C)C(=O)c1ccccc1C2=O.[Br-] [YM155 (27), YM155]
- Intracellular PLpro inhibition in the FlipGFP assay (SARS-CoV-2 PL^pro [5]): not conclusive due to cell cytotoxicity
- IC50 (SARS-CoV-2 PL^pro [6]): > 50 µM
- IC50 (SARS-CoV-2 PL^pro [3]; [16]): 20.1 µM
- IC50 (SARS-CoV-2 PL^pro [3]; FRET-based enzymatic assay, Arg-Leu-Arg-Gly-Gly-AMC substrate, 50 mM HEPES, pH 7.5, 2 mM DTT): 2.47 ± 0.46 µM

Compound: Cc1cccc2c3c(ccc12)C1=C(C(=O)C3=O)[C@@H](C)CO1 [dihydrotanshinone I (30), dihydrotanshinone I]
- IC50 (SARS-CoV-2 PL^pro [3]; [16]): 33 µM
- IC50 (SARS-CoV-2 PL^pro [3]; HTS): 0.59 µM

Compound: C[C@H](c1ccccc1Cl)N(C)Cc1cc(O)ccc1Cl [Jun9-13-9 (11)]
- IC50 (SARS-CoV-2 PL^pro [3]; FRET-based enzymatic assay): 6.67 µM

Compound: Nc1nc2[nH]cnc2c(=S)[nH]1 [6-TG (26), 6-thioguanine]
- Intracellular PLpro inhibition in the FlipGFP assay (SARS-CoV-2 PL^pro [5]): did not inhibit
- Binding to PLpro in the thermal shift assay (SARS-CoV-2 PL^pro [7]): no binding
- IC50 (SARS-CoV-2 PL^pro [3]; [16]): > 50 µM

Compound: OCCc1ccc(O)cc1 [YRL (21), 4-(2-hydroxyethyl)phenol]
- Antiviral EC50 (CPE) (SARS-CoV-2 [8]; cytopathic effect (CPE) assay): failed to show inhibition
- EC50 (SARS-CoV-2 [8]; [17]): 1 µM
- IC50 (SARS-CoV-2 PL^pro [9]): 6.68 ± 1.2 µM

Compound: O=c1nc(NO)ccn1[C@@H]1O[C@H](CO)[C@@H](O)[C@H]1O [NHC, β-d-N^4-hydroxycytidine]
- Host mutational activity (mammalian cell culture): displayed host mutational activity

Compound: COC(=O)/C=C/C(=O)NNC(=O)CCc1ccc(NC(C)=O)cc1C(=O)N[C@H](C)c1cccc2ccccc12 [Compound 47]
- IC50 (SARS-CoV-2 PL^pro [3]; covalent inhibitors): 0.23 µM
- Antiviral EC50 (SARS-CoV-2 [8]; [18]): insignificant cytoprotective effects

Compound: C[C@@H](NC(=O)c1ccccc1CCC(=O)NNC(=O)CCl)c1cccc2ccccc12 [Compound 49]
- IC50 (SARS-CoV-2 PL^pro [3]; covalent inhibitors): 5.4 µM

Compound: CC1(C)CCC2=C(O1)c1ccccc1C(=O)C2=O [β-lapachone (35), β-lapachone]
- IC50 (SARS-CoV-2 PL^pro [3]; HTS): 0.61 µM

Compound: C[C@@H](NC(=O)c1ccccc1CCC(=O)NNC(=O)CC#N)c1cccc2ccccc12 [Compound 50]
- IC50 (SARS-CoV-2 PL^pro [3]; covalent inhibitors): 8 µM

Compound: CN(Cc1cn(C2C3=C(OC2(C)C)c2ccccc2C(=O)C3=O)nn1)C1=CC(=O)c2ccccc2C1=O (stereo not shown) [Compound 39]
- IC50 (SARS-CoV-2 PL^pro [3]; 0.1 mM DTT in the PLpro assay): 2.2 µM

Compound: O=c1c2ccccc2[se]n1-c1ccccc1 [Ebselen (55), ebselen]
- Inhibition of nsp13 ATPase activity (SARS-CoV-2 nsp13): inhibit
- Inhibition of nsp14 exoribonuclease activity (SARS-CoV-2 nsp14): inhibit
- Antiviral effect in combination with hydroxychloroquine (SARS-CoV-2 [1]): synergistic antiviral effect
- Antiviral activity in combination with remdesivir (SARS-CoV-2 [1]): synergistic
- Zinc ejection from PLpro (SARS-CoV-2 PL^pro [2]): eject zinc

Compound: Cc1ccc(N)cc1C(=O)N[C@H](C)c1cccc2ccccc12 [GRL0617 (4), GRL0617]
- EC50 (SARS-CoV-2 [10]): > 20 µM

Compound: O=C(O)c1cc(SSc2ccc([N+](=O)[O-])c(C(=O)O)c2)ccc1[N+](=O)[O-] [5,5’ -dithiobis(2-nitrobenzoic acid)]
- Zinc ejection from PLpro (SARS-CoV-2 PL^pro [2]): eject zinc

Compound: Cc1cc2nc3c(=O)[nH]c(=O)nc-3n(C)c2cc1C=O [Ro 08–2750 (33)]
- IC50 (SARS-CoV-2 PL^pro [3]; HTS): 0.53 µM

Compound: Cc1ccc(NC2=CC(=O)c3sc(C)nc3C2=O)cc1 [Cdk4 inhibitor III (34)]
- IC50 (SARS-CoV-2 PL^pro [3]; HTS): 0.39 µM

Compound: O=Cc1ccc(O)cc1 [HBA (22), 4-hydroxybenzaldehyde]
- Antiviral EC50 (qRTPCR) (SARS-CoV-2 [8]; Vero E6 cells, qRT-PCR assay): not conclusive
- IC50 (SARS-CoV-2 PL^pro [9]): 3.99 ± 1.33 µM

Compound: CC1(C)OC2=C(C(=O)C(=O)c3ccccc32)C1n1cc(-c2ccccc2)nn1 (stereo not shown) [Compound 38]
- IC50 (SARS-CoV-2 PL^pro [3]; 0.1 mM DTT in the PLpro assay): 1.7 µM

Compound: Cc1coc2c1C(=O)C(=O)c1c-2ccc2c1CCCC2(C)C [tanshinone IIA (31), tanshinone IIA]
- EC50 (SARS-CoV-2 [11]): > 200 µM

Compound: c1ccc(SSc2ccccn2)nc1 [2,2’ -dithiodipyridine (69), 2,2’ -dithiodipyridine]
- Zinc ejection from PLpro (SARS-CoV-2 PL^pro [2]): eject zinc

Compound: C[C@H]1COC2=C1C(=O)C(=O)c1c2ccc2c1CCCC2(C)C [cryptotanshinone (28), cryptotanshinone]
- Intracellular PLpro inhibition in the FlipGFP assay (SARS-CoV-2 PL^pro [5]): not conclusive due to cell cytotoxicity
- EC50 (SARS-CoV-2 [11]): > 200 µM

Compound: C[C@H](c1cccc2ccccc12)N1CCC(C(=O)NCc2cc(F)cc(NC(=O)N3CCN(C)CC3)c2)CC1 [Compound 8]
- IC50 (SARS-CoV-2 PL^pro [3]): 0.44 µM
- Kd (SARS-CoV-2 PL^pro [12]): 2.6 µM
- Inhibition of a panel of host DUBs and DUB-like proteases [13]: did not show significant inhibition

Compound: O=C1c2ccccc2-c2nc3nnnn3nc21 [PKK1/Akt/Flt dual pathway inhibitor (32)]
- IC50 (SARS-CoV-2 PL^pro [3]; HTS): 0.26 µM

Compound: O=C1c2c(O)cccc2[C@H]([C@@H]2O[C@H](CO)[C@@H](O)[C@H](O)[C@H]2O)c2cc(CO)cc(O)c21 [aloin A (42), aloin A]
- IC50 (SARS-CoV-2 PL^pro [3]): 13.2 µM
- IC50 (SARS-CoV-2 PL^pro [4]; [15]): 15.7 µM

Compound: COC(=O)c1ccc(O)c(O)c1 [HE9 (20), methyl 3,4-dihydroxybenzoate]
- EC50 (SARS-CoV-2 [8]; read-out: Antiviral EC50 (CPE), cytopathic effect (CPE) assay): 10.4 µM
- EC50 (SARS-CoV-2 [8]; [17]): 0.13 µM

Compound: CCC(CC)COC(=O)[C@H](C)N[P@](=O)(OC[C@H]1O[C@@](C#N)(c2ccc3c(N)ncnn23)[C@H](O)[C@@H]1O)Oc1ccccc1 [remdesivir (1), remdesivir]
- EC50 (SARS-CoV-2 [8]; read-out: Antiviral EC50, SARS-CoV-2 infected Vero E6 cells): 0.74 µM

Compound: CN(Cc1cn(C2C3=C(OC2(C)C)c2ccccc2C(=O)C3=O)nn1)C1=C(Br)C(=O)c2ccccc2C1=O (stereo not shown) [Compound 40]
- IC50 (SARS-CoV-2 M^pro): 66 µM
- IC50 (SARS-CoV-2 PL^pro [3]; 0.1 mM DTT in the PLpro assay): 3.1 µM

Compound: CC(C)C(=O)OC[C@H]1O[C@@H](n2ccc(NO)nc2=O)[C@H](O)[C@@H]1O [Molnupiravir (2), molnupiravir]
- Ames test (bacteria): positive

Compound: c1ccc2sc(SSc3nc4ccccc4s3)nc2c1 [2,2’ -dithiobis(benzothiazole) (70), 2,2’ -dithiobis(benzothiazole)]
- Zinc ejection from PLpro (SARS-CoV-2 PL^pro [2]): eject zinc

Compound: Oc1c(Cl)cc(Cl)c2cccnc12 [Chloroxine (37), chloroxine]
- Binding to PLpro in the biolayer interferometry and thermal shift assays (SARS-CoV-2 PL^pro [7]): showed binding
- IC50 (SARS-CoV-2 PL^pro [14]): 7.24 µM

Compound: C#CC(=O)NNC(=O)CCc1ccccc1C(=O)N[C@H](C)c1cccc2ccccc12 [Compound 48]
- IC50 (SARS-CoV-2 PL^pro [3]; covalent inhibitors): 0.098 µM
- Antiviral EC50 (SARS-CoV-2 [8]; [18]): cytotoxic
